Assay results: PubChem BioAssay (NCI)
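48-hour exposure; five concentrations; linearly interpolated endpoints. Abbreviation: GI50, concentration required for 50% inhibition of growth. Definition used: TGI = concentration required for complete inhibition of growth.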

Legend:
Test in all cases: growth of human tumour cells (NCI), 48 h
RXF 393 renal = tested on: RXF 393 renal
HL-60(TB) leukemia = tested on: HL-60(TB) leukemia
HCT-116 colon = tested on: HCT-116 colon
MDA-MB-468 breast = tested on: MDA-MB-468 breast
DU-145 prostate = tested on: DU-145 prostate
MDA-MB-435 = tested on: MDA-MB-435
SNB-19 CNS = tested on: SNB-19 CNS
HOP-92 NSCLC = tested on: HOP-92 NSCLC
OVCAR-8 ovarian = tested on: OVCAR-8 ovarian
SW-620 colon = tested on: SW-620 colon
A549 NSCLC = tested on: A549 NSCLC
HT29 colon = tested on: HT29 colon
SK-MEL-2 melanoma = tested on: SK-MEL-2 melanoma
CAKI-1 renal = tested on: CAKI-1 renal
COLO 205 colon = tested on: COLO 205 colon
SNB-75 CNS = tested on: SNB-75 CNS
T-47D breast = tested on: T-47D breast
OVCAR-3 ovarian = tested on: OVCAR-3 ovarian
HCT-15 colon = tested on: HCT-15 colon
SN12C renal = tested on: SN12C renal
SF-295 CNS = tested on: SF-295 CNS
MCF7 breast = tested on: MCF7 breast
NCI/ADR-RES ovarian = tested on: NCI/ADR-RES ovarian
SK-OV-3 ovarian = tested on: SK-OV-3 ovarian
MOLT-4 leukemia = tested on: MOLT-4 leukemia
HS 578T breast = tested on: HS 578T breast
NCI-H226 lung = tested on: NCI-H226 lung
A498 renal = tested on: A498 renal
SR leukemia = tested on: SR leukemia
RPMI-8226 leukemia = tested on: RPMI-8226 leukemia
EKVX NSCLC = tested on: EKVX NSCLC
OVCAR-5 ovarian = tested on: OVCAR-5 ovarian
SK-MEL-5 melanoma = tested on: SK-MEL-5 melanoma
TK-10 renal = tested on: TK-10 renal
PC-3 prostate = tested on: PC-3 prostate
CCRF-CEM leukemia = tested on: CCRF-CEM leukemia
MALME-3M melanoma = tested on: MALME-3M melanoma
OVCAR-4 ovarian = tested on: OVCAR-4 ovarian
BT-549 breast = tested on: BT-549 breast
786-0 renal = tested on: 786-0 renal
NCI-H460 lung = tested on: NCI-H460 lung
UO-31 renal = tested on: UO-31 renal
UACC-62 melanoma = tested on: UACC-62 melanoma
MDA-MB-231 breast = tested on: MDA-MB-231 breast
M14 melanoma = tested on: M14 melanoma
HOP-62 NSCLC = tested on: HOP-62 NSCLC
SF-268 CNS = tested on: SF-268 CNS
U251 CNS = tested on: U251 CNS
LOX IMVI melanoma = tested on: LOX IMVI melanoma
UACC-257 melanoma = tested on: UACC-257 melanoma
NCI-H23 lung = tested on: NCI-H23 lung
HCC-2998 colon = tested on: HCC-2998 colon
SK-MEL-28 melanoma = tested on: SK-MEL-28 melanoma
ACHN renal = tested on: ACHN renal
KM12 colon = tested on: KM12 colon
K-562 leukemia = tested on: K-562 leukemia
IGROV1 ovarian = tested on: IGROV1 ovarian
SF-539 CNS = tested on: SF-539 CNS
NCI-H522 lung = tested on: NCI-H522 lung

Structure (SMILES): CC(=O)c1ccc(Nc2nc(SCCC(C)C)nc(-c3ccc(F)cc3)c2C#N)cc1
- GI50 (RXF 393 renal): 3.53 µM
- TGI (RXF 393 renal): 16.8 µM
- GI50 (HL-60(TB) leukemia): > 100 µM
- TGI (HL-60(TB) leukemia): > 100 µM
- GI50 (HCT-116 colon): 3.51 µM
- TGI (HCT-116 colon): 13.7 µM
- GI50 (MDA-MB-468 breast): 10.2 µM
- TGI (MDA-MB-468 breast): 50.3 µM
- GI50 (DU-145 prostate): 10.7 µM
- TGI (DU-145 prostate): > 100 µM
- GI50 (MDA-MB-435): 12.9 µM
- TGI (MDA-MB-435): > 100 µM
- GI50 (SNB-19 CNS): 3.7 µM
- TGI (SNB-19 CNS): 14.5 µM
- GI50 (HOP-92 NSCLC): 2.95 µM
- TGI (HOP-92 NSCLC): 16.6 µM
- GI50 (OVCAR-8 ovarian): 5.77 µM
- TGI (OVCAR-8 ovarian): 25.5 µM
- GI50 (SW-620 colon): 16.7 µM
- TGI (SW-620 colon): > 100 µM
- GI50 (A549 NSCLC): 3.85 µM
- TGI (A549 NSCLC): > 100 µM
- GI50 (HT29 colon): 5.53 µM
- TGI (HT29 colon): > 100 µM
- GI50 (SK-MEL-2 melanoma): > 100 µM
- TGI (SK-MEL-2 melanoma): > 100 µM
- GI50 (CAKI-1 renal): 3.75 µM
- TGI (CAKI-1 renal): 23.5 µM
- GI50 (COLO 205 colon): 7.42 µM
- TGI (COLO 205 colon): > 100 µM
- GI50 (SNB-75 CNS): 2.06 µM
- TGI (SNB-75 CNS): 21.6 µM
- GI50 (T-47D breast): 4.19 µM
- TGI (T-47D breast): 74.5 µM
- GI50 (OVCAR-3 ovarian): 13.3 µM
- TGI (OVCAR-3 ovarian): 72.8 µM
- GI50 (HCT-15 colon): 9.87 µM
- TGI (HCT-15 colon): > 100 µM
- GI50 (SN12C renal): 24 µM
- TGI (SN12C renal): > 100 µM
- GI50 (SF-295 CNS): 2.18 µM
- TGI (SF-295 CNS): 5.13 µM
- GI50 (MCF7 breast): 7.51 µM
- TGI (MCF7 breast): > 100 µM
- GI50 (NCI/ADR-RES ovarian): 4.31 µM
- TGI (NCI/ADR-RES ovarian): 27.5 µM
- GI50 (SK-OV-3 ovarian): 9.37 µM
- TGI (SK-OV-3 ovarian): 26.2 µM
- GI50 (MOLT-4 leukemia): > 100 µM
- TGI (MOLT-4 leukemia): > 100 µM
- GI50 (HS 578T breast): 3.06 µM
- TGI (HS 578T breast): 10.1 µM
- GI50 (NCI-H226 lung): 3.82 µM
- TGI (NCI-H226 lung): 22.4 µM
- GI50 (A498 renal): 2.84 µM
- TGI (A498 renal): 8.8 µM
- GI50 (SR leukemia): > 100 µM
- TGI (SR leukemia): > 100 µM
- GI50 (RPMI-8226 leukemia): > 100 µM
- TGI (RPMI-8226 leukemia): > 100 µM
- GI50 (EKVX NSCLC): 3.05 µM
- TGI (EKVX NSCLC): 18.8 µM
- GI50 (OVCAR-5 ovarian): > 100 µM
- TGI (OVCAR-5 ovarian): > 100 µM
- GI50 (SK-MEL-5 melanoma): 13.8 µM
- TGI (SK-MEL-5 melanoma): 53.4 µM
- GI50 (TK-10 renal): 3.78 µM
- TGI (TK-10 renal): 12.7 µM
- GI50 (PC-3 prostate): 24.7 µM
- TGI (PC-3 prostate): > 100 µM
- GI50 (CCRF-CEM leukemia): > 100 µM
- TGI (CCRF-CEM leukemia): > 100 µM
- GI50 (MALME-3M melanoma): 32.6 µM
- TGI (MALME-3M melanoma): > 100 µM
- GI50 (OVCAR-4 ovarian): 7.2 µM
- TGI (OVCAR-4 ovarian): 93.3 µM
- GI50 (BT-549 breast): 12.7 µM
- TGI (BT-549 breast): > 100 µM
- GI50 (786-0 renal): 3.09 µM
- TGI (786-0 renal): 8.47 µM
- GI50 (NCI-H460 lung): 3.24 µM
- TGI (NCI-H460 lung): 12.5 µM
- GI50 (UO-31 renal): 5.01 µM
- TGI (UO-31 renal): 25.7 µM
- GI50 (UACC-62 melanoma): 30.2 µM
- TGI (UACC-62 melanoma): > 100 µM
- GI50 (MDA-MB-231 breast): 2.94 µM
- TGI (MDA-MB-231 breast): 10.2 µM
- GI50 (M14 melanoma): 24.2 µM
- TGI (M14 melanoma): > 100 µM
- GI50 (HOP-62 NSCLC): 3.99 µM
- TGI (HOP-62 NSCLC): 16.3 µM
- GI50 (SF-268 CNS): 4.85 µM
- TGI (SF-268 CNS): 97.4 µM
- GI50 (U251 CNS): 2.63 µM
- TGI (U251 CNS): 7.87 µM
- GI50 (LOX IMVI melanoma): 4.41 µM
- TGI (LOX IMVI melanoma): 25.7 µM
- GI50 (UACC-257 melanoma): > 100 µM
- TGI (UACC-257 melanoma): > 100 µM
- GI50 (NCI-H23 lung): 5.86 µM
- TGI (NCI-H23 lung): 39.6 µM
- GI50 (HCC-2998 colon): 21 µM
- TGI (HCC-2998 colon): > 100 µM
- GI50 (SK-MEL-28 melanoma): 29.6 µM
- TGI (SK-MEL-28 melanoma): > 100 µM
- GI50 (ACHN renal): 2.07 µM
- TGI (ACHN renal): 4.56 µM
- GI50 (KM12 colon): 45.5 µM
- TGI (KM12 colon): > 100 µM
- GI50 (K-562 leukemia): 32.2 µM
- TGI (K-562 leukemia): > 100 µM
- GI50 (IGROV1 ovarian): 10.6 µM
- TGI (IGROV1 ovarian): 37.9 µM
- GI50 (SF-539 CNS): 3.69 µM
- TGI (SF-539 CNS): 16 µM
- GI50 (NCI-H522 lung): 24 µM
- TGI (NCI-H522 lung): > 100 µM
